For orientation: IC50 means the concentration at which inhibition is half-maximal.

Test [1] addresses T1, Human PDGFRβ, cytoplasmic domain (GST-PDGFRβ) (Homo sapiens, UniProt P09619).
T1 construct: made in house
The test is described as follows: Human PDGFRβ biochemical inhibition assay (off-chip Mobility Shift Assay). An outline of the steps: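 GST-tagged cytoplasmic domain (aa 557-1106) from baculovirus was incubated 1 h at room temperature with compound, CSKtide, ATP at Km and Mg²⁺ in HEPES buffer, pH 7.5. Phosphorylated and unphosphorylated peptide were separated by off-chip mobility shift, and the product ratio P/(P+S) gave percent inhibition.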

Test [2] concerns the target T2, Human PDGFRα, cytoplasmic domain (GST-PDGFRα) (Homo sapiens, UniProt P16234).
T2 construct: made in house
The test is described as follows: Human PDGFRα biochemical inhibition assay (off-chip Mobility Shift Assay).

T2 sequence (P16234 550-1089 T674I): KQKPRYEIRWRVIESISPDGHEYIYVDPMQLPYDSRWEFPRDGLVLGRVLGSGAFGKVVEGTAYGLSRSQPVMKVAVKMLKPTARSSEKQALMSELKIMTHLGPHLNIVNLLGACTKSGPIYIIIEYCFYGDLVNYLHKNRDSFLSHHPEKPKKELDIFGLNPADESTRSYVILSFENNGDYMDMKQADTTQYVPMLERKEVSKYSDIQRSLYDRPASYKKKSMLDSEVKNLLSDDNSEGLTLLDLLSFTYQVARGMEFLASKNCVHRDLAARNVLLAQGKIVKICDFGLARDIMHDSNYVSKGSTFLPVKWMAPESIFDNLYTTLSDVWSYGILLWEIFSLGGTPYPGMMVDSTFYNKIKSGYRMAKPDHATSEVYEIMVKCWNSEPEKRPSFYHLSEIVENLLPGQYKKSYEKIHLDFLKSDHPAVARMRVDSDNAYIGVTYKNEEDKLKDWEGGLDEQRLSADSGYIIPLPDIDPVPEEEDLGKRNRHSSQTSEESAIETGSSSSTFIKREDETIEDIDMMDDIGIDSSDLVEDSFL
T1 sequence (P09619 with tags, fused parts or gaps): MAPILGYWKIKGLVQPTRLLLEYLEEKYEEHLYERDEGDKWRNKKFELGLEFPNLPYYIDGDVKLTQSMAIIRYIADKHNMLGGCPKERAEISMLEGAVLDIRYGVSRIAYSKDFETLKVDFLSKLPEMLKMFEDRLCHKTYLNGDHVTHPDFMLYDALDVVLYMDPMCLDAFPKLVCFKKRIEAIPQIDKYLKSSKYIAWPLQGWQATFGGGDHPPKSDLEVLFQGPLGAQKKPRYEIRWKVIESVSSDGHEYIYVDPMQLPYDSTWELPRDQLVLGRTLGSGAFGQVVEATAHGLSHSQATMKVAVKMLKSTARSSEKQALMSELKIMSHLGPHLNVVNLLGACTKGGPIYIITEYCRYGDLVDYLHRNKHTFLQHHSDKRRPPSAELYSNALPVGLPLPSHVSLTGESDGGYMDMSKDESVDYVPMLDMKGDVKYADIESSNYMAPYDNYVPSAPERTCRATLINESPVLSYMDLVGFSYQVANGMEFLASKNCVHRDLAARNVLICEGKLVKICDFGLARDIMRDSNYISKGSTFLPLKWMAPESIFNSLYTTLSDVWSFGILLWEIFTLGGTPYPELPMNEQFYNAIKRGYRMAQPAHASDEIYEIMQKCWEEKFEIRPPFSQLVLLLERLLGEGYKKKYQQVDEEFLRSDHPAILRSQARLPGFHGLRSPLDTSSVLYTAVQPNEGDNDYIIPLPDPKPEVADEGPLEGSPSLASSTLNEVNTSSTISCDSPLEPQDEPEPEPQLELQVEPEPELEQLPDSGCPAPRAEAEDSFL

On to `CCn1cc2ncc(N[C@@H](C)c3cccc(NC(=O)c4ccc(N5CCN(C)CC5)c(Cl)c4)c3)nc2n1` [Compound 361, (S)-3-chloro-N-(3-(1-((2-ethyl-2H-pyrazolo[3,4-b]pyrazin-6-yl)amino)ethyl)phenyl)-4-(4-methylpiperazin-1-yl)benzamide], for which the IC50 in test [1] was 0.3 to 1 µM; in test [2] it was below 0.3 µM.
For `CCn1cc2ncc(N[C@@H](C)c3cccc(NC(=O)Nc4ccc(NC)nc4)c3)nc2n1` [Compound 738, (S)-1-(3-(1-((2-ethyl-2H-pyrazolo[3,4-b]pyrazin-6-yl)amino)ethyl)phenyl)-3-(6-(methylamino)pyridin-3-yl)urea], the results for the IC50 in test [1] and in test [2] were at least 1 µM and 0.3 to 1 µM, respectively.
Taken in the same sequence, the figures for `CCn1cc2ncc(N[C@@H](C)c3cccc(NC(=O)c4ccc(CN5CC[C@@H](F)C5)c(Cl)c4)c3)nc2n1` [Compound 464, 3-chloro-N-(3-((S)-1-((2-ethyl-2H-pyrazolo[3,4-b]pyrazin-6-yl)amino)ethyl)phenyl)-4-(((R)-3-fluoropyrrolidin-1-yl)methyl) benzamide] were below 0.3 µM and below 0.3 µM.
The like results for `Cc1cncc(C(=O)Nc2cccc([C@H](C)Nc3cnc4cnn(C5CCOCC5)c4n3)c2)c1` [Compound 180, (S)-5-methyl-N-(3-(1-((1-(tetrahydro-2H-pyran-4-yl)-1H-pyrazolo[3,4-b]pyrazin-6-yl)amino)ethyl)phenyl) nicotinamide] were, in that order, at least 1 µM and 0.3 to 1 µM.
For `C[C@H](Nc1cnc2cnn(C)c2n1)c1cc(NC(=O)c2cnn(C3CCC3)c2)ccc1F` [Compound 213, (S)-1-cyclobutyl-N-(4-fluoro-3-(1-((1-methyl-1H-pyrazolo[3,4-b]pyrazin-6-yl)amino)ethyl)phenyl)-1H-pyrazole-4-carboxamide], the IC50 in test [1] and in test [2] was below 0.3 µM throughout.
Turning to `CCc1ccc(NC(=O)c2ccc(C(F)(F)F)nc2)cc1[C@H](C)Nc1cnc2cn(CC)nc2n1` [Compound 516, (S)-N-(4-ethyl-3-(1-((2-ethyl-2H-pyrazolo[3,4-b]pyrazin-6-yl)amino)ethyl)phenyl)-6-(trifluoromethyl)nicotinamide], the IC50 in test [1] and in test [2] was at least 1 µM throughout.
For `Cc1n[nH]c2ncc(N[C@@H](C)c3cccc(NC(=O)c4cnn(C5CC5)c4)c3)nc12` [Compound 543, (S)-1-cyclopropyl-N-(3-(1-((3-methyl-1H-pyrazolo[3,4-b]pyrazin-5-yl)amino)ethyl)phenyl)-1H-pyrazole-4-carboxamide], the IC50 in test [1] and in test [2] was below 0.3 µM in each case.
On to `Cc1cncc(C(=O)Nc2cccc([C@H](C)Nc3cnc4[nH]ccc4n3)c2)c1` [Compound 552, (S)-N-(3-(1-((5H-pyrrolo[2,3-b]pyrazin-2-yl)amino)ethyl)phenyl)-5-methylnicotinamide], for which the IC50 in test [1] and in test [2] was below 0.3 µM each time.
With `CCn1cc2ncc(N[C@@H](C)c3cccc(NC(=O)Cc4ccc(F)c(Cl)c4)c3)nc2n1` [Compound 631, (S)-2-(3-chloro-4-fluorophenyl)-N-(3-(1-((2-ethyl-2H-pyrazolo[3,4-b]pyrazin-6-yl)amino)ethyl)phenyl)acetamide], the IC50 in test [1] and in test [2] was below 0.3 µM throughout.
Consider `Cc1cncc(C(=O)Nc2cccc([C@H](C)Nc3cnc4cn(-c5cccnc5)nc4n3)c2)c1` [Compound 463, (S)-5-methyl-N-(3-(1-((2-(pyridin-3-yl)-2H-pyrazolo[3,4-b]pyrazin-6-yl)amino)ethyl)phenyl)nicotinamide], for which the IC50 in test [1] and in test [2] was below 0.3 µM in each case.
As to `CCn1cc2ncc(N[C@@H](C)c3cccc(NC(=O)c4ccc(CN(C)C)cc4)c3)nc2n1` [Compound 373, (S)-4-((dimethylamino)methyl)-N-(3-(1-((2-ethyl-2H-pyrazolo[3,4-b]pyrazin-6-yl)amino)ethyl)phenyl)benzamide], the IC50 in test [1] is at least 1 µM; in test [2], below 0.3 µM.
The like results for `CCn1cc2ncc(N[C@@H](C)c3cc(NC(=O)c4ccc(CN5CCN(C)CC5)c(C(F)(F)F)c4)ccc3F)nc2n1` [Compound 444, (S)-N-(3-(1-((2-ethyl-2H-pyrazolo[3,4-b]pyrazin-6-yl)amino)ethyl)-4-fluorophenyl)-4-((4-methylpiperazin-1-yl)methyl)-3-(trifluoromethyl) benzamide] were, in that order, below 0.3 µM and below 0.3 µM.
The like results for `CCn1nc(C(=O)Nc2cccc([C@H](C)Nc3cnc4cnn(C)c4n3)c2)cc1C(C)C` [Compound 163, (S)-1-ethyl-5-isopropyl-N-(3-(1-((1-methyl-1H-pyrazolo[3,4-b]pyrazin-6-yl)amino)ethyl)phenyl)-1H-pyrazole-3-carboxamide] were, in that order, below 0.3 µM and below 0.3 µM.
In the case of `CCn1cc2ncc(N[C@@H](C)c3cc(NC(=O)Cc4cnc(C5CC5)c(F)c4)ccc3C)nc2n1` [Compound 708, (S)-2-(6-cyclopropyl-5-fluoropyridin-3-yl)-N-(3-(1-((2-ethyl-2H-pyrazolo[3,4-b]pyrazin-6-yl)amino)ethyl)-4-methylphenyl)acetamide], the half-inhibitory concentration (IC50) in test [1] was 0.3 to 1 µM; in test [2] it was below 0.3 µM.
Taken in the same sequence, the figures for `CCn1cc2ncc(N[C@@H](C)c3cc(NC(=O)Cc4cccc(C(F)(F)F)c4)ccc3F)nc2n1` [Compound 636, (S)-N-(3-(1-((2-ethyl-2H-pyrazolo[3,4-b]pyrazin-6-yl)amino)ethyl)-4-fluorophenyl)-2-(3-(trifluoromethyl)phenyl) acetamide] were below 0.3 µM and below 0.3 µM.
For the compound `C[C@H](Nc1cnc2cnn(C)c2n1)c1cccc(NC(=O)c2cncc(C(F)(F)F)c2)c1` [Compound 102, (S)-N-(3-(1-((1-methyl-1H-pyrazolo[3,4-b]pyrazin-6-yl)amino)ethyl)phenyl)-5-(trifluoromethyl)nicotinamide], the IC50 in test [1] and in test [2] was below 0.3 µM in each case.
Turning to `CCn1cc2ncc(N[C@@H](C)c3cc(NC(=O)Cc4ccc(C(F)(F)F)cn4)ccc3C)nc2n1` [Compound 661, (S)-N-(3-(1-((2-ethyl-2H-pyrazolo[3,4-b]pyrazin-6-yl)amino)ethyl)-4-methylphenyl)-2-(5-(trifluoromethyl)pyridin-2-yl)acetamide], the IC50 in test [1] is 0.3 to 1 µM; in test [2], below 0.3 µM.
`Cc1cc2ncc(N[C@@H](C)c3cc(NC(=O)c4ccc(C(F)(F)F)nc4)ccc3F)nc2s1` [Compound 615, (S)-N-(4-fluoro-3-(1-((6-methylthieno[2,3-b]pyrazin-3-yl)amino)ethyl)phenyl)-6-(trifluoromethyl)nicotinamide]: the IC50 in test [1] and in test [2] was below 0.3 µM throughout.
In the case of `CCn1cc2ncc(N[C@@H](C)c3cc(NC(=O)Cc4ccccc4F)ccc3C)nc2n1` [Compound 700, (S)-N-(3-(1-((2-ethyl-2H-pyrazolo[3,4-b]pyrazin-6-yl)amino)ethyl)-4-methylphenyl)-2-(2-fluorophenyl)acetamide], the IC50 in test [1] and in test [2] was below 0.3 µM throughout.
As to `C[C@H](Nc1cnc2cnn(C)c2n1)c1cc(NC(=O)c2ccc(C3CC3)nc2)ccc1F` [Compound 201, (S)-6-cyclopropyl-N-(4-fluoro-3-(1-((1-methyl-1H-pyrazolo[3,4-b]pyrazin-6-yl)amino)ethyl)phenyl) nicotinamide], the IC50 in test [1] and in test [2] was below 0.3 µM in each case.
On to `CCn1cc2ncc(N[C@@H](C)c3cccc(NC(=O)Cc4ccc(C(F)(F)F)cn4)c3)nc2n1` [Compound 688, (S)-N-(3-(1-((2-ethyl-2H-pyrazolo[3,4-b]pyrazin-6-yl)amino)ethyl)phenyl)-2-(5-(trifluoromethyl)pyridin-2-yl) acetamide], for which the results for the IC50 in test [1] and in test [2] were at least 1 µM and below 0.3 µM, respectively.
Taken in the same sequence, the figures for `Cc1n[nH]c2ncc(N[C@@H](C)c3cccc(NC(=O)c4ccc(C(F)F)s4)c3)nc12` [Compound 539, (S)-5-(difluoromethyl)-N-(3-(1-((3-methyl-1H-pyrazolo[3,4-b]pyrazin-5-yl)amino)ethyl)phenyl)thiophene-2-carboxamide] were below 0.3 µM and below 0.3 µM.
Taken in the same sequence, the figures for `CCc1cncc(C(=O)Nc2cccc([C@H](C)Nc3cnc4cn[nH]c4n3)c2)c1` [Compound 91, (S)-N-(3-(1-((1H-pyrazolo[3,4-b]pyrazin-6-yl)amino)ethyl)phenyl)-5-ethylnicotinamide] were below 0.3 µM and below 0.3 µM.
Taken in the same sequence, the figures for `CCn1cc2ncc(N[C@@H](C)c3cccc(NC(=O)c4cnc(F)c(C)c4)c3)nc2n1` [Compound 329, (S)-N-(3-(1-((2-ethyl-2H-pyrazolo[3,4-b]pyrazin-6-yl)amino)ethyl)phenyl)-6-fluoro-5-methylnicotinamide] were below 0.3 µM and below 0.3 µM.
Consider `CCn1cc2ncc(N[C@@H](C)c3cccc(NC(=O)c4cc(F)c(CN5CC6(COC6)C5)c(Cl)c4)c3)nc2n1` [Compound 490, (S)-4-((2-oxa-6-azaspiro[3.3]heptan-6-yl)methyl)-3-chloro-N-(3-(1-((2-ethyl-2H-pyrazolo[3,4-b]pyrazin-6-yl)amino)ethyl)phenyl)-5-fluorobenzamide], for which the IC50 in test [1] and in test [2] was below 0.3 µM each time.
Take `CCn1cc2ncc(N[C@@H](C)c3cc(NC(=O)Cc4cc(CN5CCN(C)CC5)c(C)cn4)ccc3C)nc2n1` [Compound 722, (S)-N-(3-(1-((2-ethyl-2H-pyrazolo[3,4-b]pyrazin-6-yl)amino)ethyl)-4-methylphenyl)-2-(5-methyl-4-((4-methylpiperazin-1-yl)methyl)pyridin-2-yl)acetamide]: the IC50 in test [1] was at least 1 µM; in test [2], below 0.3 µM.
Consider `Cc1cncc(C(=O)Nc2cccc([C@H](C)Nc3cnc4c(n3)CCCC4)c2)c1` [Compound 44, (S)-5-methyl-N-(3-(1-((5,6,7,8-tetrahydroquinoxalin-2-yl)amino)ethyl)phenyl) nicotinamide], for which the IC50 in test [1] is at least 1 µM; in test [2], below 0.3 µM.
